The record followed here is patent US5773459A, “Urea- and thiourea-type compounds” (Sugen, Inc., priority 1995, dated 1998).

The test system of assay [1] is chimeric receptor containing the EGFR extracellular domain and the HER2 intracellular kinase domain. The assay can be described thus: EGFR-HER2 chimeric receptor assay, HER2 kinase activity in whole NIH3T3 cells. It counts as cell-based. Conditions: NIH3T3 cells with EGFR-HER2 chimera, EGF stimulated; read-out: ELISA DATA: HER2 - (3T3). From the text: (§1) The following examples illustrate the ability of the exemplary compounds to inhibit receptor tyrosine kinases, such as HER2 and/or EGFR. The following target cells were used for cellular kinase assays: NIH3T3 clone C7 (Honegger et al., supra) engineered to over-express human EGF receptor; NIH3T3 cells engineered to over-express a chimeric receptor containing the EGFR extracellular domain and the HER2 intracellular kinase domain; the human mammary carcinoma line BT474 (ATCC HTB2) expressing HER2; and the human glioblastoma line U1242 that expresses PDGFR-beta. Growth assays were carried out using human mammary epithelial SKBR3 (ATCC HTB30) cells (SKBR3 cells over-express HER2), SKOV3 (ATCC HTB77) human ovarian cancer cell line (SKOV3 cells also over-express HER2), A431 cells (A431 cells over-express EGFR) MCF7 human breast carcinoma cells, MCF7 cells overexpressing the HER2 kinase (MCF7-HER2), NIH3T3 cells, and NIH3T3 cells overexpressing the HER2 kinase (3T3-HER2.
EGFR-HER2 Chimeric Recetor
HER2 kinase activity (EGFR-3T3) in whole cells was measured as described below:
The materials and regeants are identical to these used in example 1, the EGFR whole cell kinase assay.
A. Coat ELISA plates (Corning, 96 well, Cat. #25805-96) with 05-101 antibody at 0.5 μg per well in PBS, 100 μl final volume/well, and store overnight at 4.sunburst.C. Coated plates are good for up to 10 days when stored at 4° C.
B. On day of use, remove coating buffer and replace with 100 μl blocking buffer (5% Carnation Instant Non-Fat Dry Milk in PBS). Incubate the plate, shaking, at room temperature (about 23.sunburst.C to 25.sunburst.C) for 30 minutes. Just prior to use, remove blocking buffer and wash plate 4 times with TBST buffer.
A. An NIH3T3 cell line overexpressing a chimeric receptor containing the EGFR extracellular domain and […] can be used for this assay.
B. Choose dishes having 80-90% confluence for the experiment. Trypsinize cells and stop reaction by adding 10% fetal bovine serum. Suspend cells in DMEM medium (10% CS DMEM medium) and centrifuge once at 1500 rpm, at room temperature for 5 minutes.
C. Resuspend cells in seeding medium (DMEM, 0.5% bovine serum) , and count the cells using trypan blue. Viability above 90% is acceptable. Seed cells in DMEM medium (0.5% bovine serum) at a density of 10,000 cells per well, 100 μl per well, in a 96 well microtiter plate. Incubate seeded cells in 5% CO2 at 37.sunburst.C for about 40 hours.
A. Check seeded cells for contamination using an inverted microscope. Dilute drug stock (10 mg/ml in DMSO) 1:10 in DMEM medium, then transfer 5 l to a […] well for a final drug dilution of 1:200 and a final DMSO concentration of 1%. Control wells receive DMSO alone. Incubate in 5% CO2 at 37° C. for two hours. […]

The subject of assay [2] is NIH3T3 cells overexpressing the HER2 kinase (3T3-HER2). The assay can be described thus: 3T3 Growth Assay (HER2-overexpressing 3T3 cells, SRB). Particulars: Mus musculus. The format is cell-based.
Description: as §1
The 3T3 growth assay was carried out as follows: […]
(1) HER2C7 (engineered to express HER2) and NIH3T3C7 (as the control) cells are used for this assay. […] Cells are incubated at 37° C., 5% CO2 overnight to allow for cell attachment to the plate;
(2) The […] compound is added to the cells at day 2. […] A total of 100 μl/well medium of the diluted compounds is added into the cells. The total volume of each well is 200 μl. Quadruplicates (wells) and 11 concentration points are applied to each compound tested.
(3) After the cells are treated with the compound for 4 days, the cells are washed with PBS and fixed with 200 μl/well ice-cold 10% TCA for one hour at 0°-5° C. condition.
(4) Remove TCA and rinse wells 5 times with deionized water. Dry plates upside down with paper towels. Stain cells with 0.4% SRB at 100 μl well for 10 minutes.
(5) Pour off SRB and rinse plate 5 times with 1% acetic acid. Dry plate completely.
(6) Solubilize the dye with 10 mM Tris-base at 100 μl/well for 10 minutes on a shaker.
(7) Read the plate at dual wavelengths at 570 nm and 630 nm on Dynatech Elisa plate reader.

[3] abbreviates: read-out: GROWTH DATA: 3T3/HER2 2% FBS.
[4] abbreviates: read-out: GROWTH DATA: 3T3/HER2 10% FBS.

Where two headings read alike, the source gives them in different places.

Turning to `CC(C)S(=O)(=O)c1csc(NC(=O)Nc2cc(C(F)(F)F)cc(C(F)(F)F)c2)c1Cl` [Example Z2, N-[3-Chloro-4-(isopropylsulfonyl)thien-2-yl]-N'-(3,5-di-trifluoromethylphenyl)urea], the IC50 came to 31.7 µM in assay [1], 0.6 µM in assay [2] (setting [3]) and 18 µM in assay [2] (setting [4]).

Consider `O=C(Nc1ccc(SC(F)(F)F)cc1)Nc1ccc(Oc2ccc(Cl)cc2Cl)nc1` [Example Z3], for which the IC50 in assay [1] was more than 100 µM; in assay [2] (setting [3]), 0.35 µM; in assay [2] (setting [4]), 18 µM.

Take `N#Cc1ccc(NC(=S)Nc2ccc(S(=O)(=O)N3CCCCC3)cc2)cc1` [Example Z4, N-(4-Cyanophenyl)-N'-[4-[(piperid-1-yl)sulfonyl]phenyl]thiourea]: in assay [1], the IC50 was more than 100 µM.

Consider `CC(C)S(=O)(=O)c1csc(NC(=O)Nc2ccc(C(C)(C)C)cc2)c1Cl` [Example Z1, N-[3-Chloro-4-(isopropylsulfonyl)thien-2-yl]-N'-(4-t-butylphenyl)urea], for which the IC50 in assay [1] stood at 10.3 µM; in assay [2] (setting [3]) it was 1 µM; in assay [2] (setting [4]) it was 15 µM.
